Source: US6613879B1, “FAP-activated anti-tumour compounds” (Boehringer Ingelheim Pharma KG, priority 1999, dated 2003)
Residues, ends and D or L forms follow the SMILES beside them. *: point of attachment. NH(4-MeO-2-naphthyl) = COc1cc(N*)cc2ccccc12; AFC = O=c1cc(C(F)(F)F)c2ccc(N*)cc2o1; Cbz = O=C(OCc1ccccc1)*

Columns and labels:
[1] = molecular target: T1, soluble recombinant FAPα (FAPmCD8 fusion protein) (UniProt P01731+Q12884); assay: Cleavage of doxorubicin-peptide conjugates by soluble recombinant FAPα (HPLC release of free doxorubicin); format: biochemical, human; conditions: for Cleavage by FAP: after 20 h
T1 construct: the extracellular domain of FAPα (amino acids 27 to 760), generating a fusion protein construct, FAPmCD8; extracellular domain of murine CD8α (Genbank M12825), N-terminal 189 amino acids (N); made in house; host or cells: High Five insect cells, recombinant baculovirus (pVL1393; amplified in Sf9)
Experimental: A soluble recombinant form of FAPα protein was prepared as follows. […] The cDNAs were verified by sequencing and inserted into the pVL1393 vector. […] The culture supernatant of High Five cells infected with recombinant FAPmCD8 baculovirus for four days was collected and cleared by ultracentrifugation. FAPmCD8 fusion protein was purified from such supernatants using an anti-FAPα monoclonal antibody immobilized on activated agarose beads (Pierce Chemical, Indianapolis, Ind., USA). […] The samples were immediately neutralized with a saturated Tris solution (Sigma Chemicals, St. Louis, Mo.) and protein-containing fractions were pooled.
Doxorubicin-peptide conjugate stock solutions (5 mM) were diluted with Hepes-buffered saline pH 7.4 to a final concentration of 50 to 100 μM. Twenty μl of the resulting solution was mixed with 50 μl of purified FAPmCD8 fusion protein (approximately 20 ng) described above and 30 μl Hepes-buffered saline, pH 7.4. The mixture was allowed to incubate at 37° C. for 1 day and release of free doxorubicin was measured in the HPLC assay described. Areas under each peak were quantified using the software package above and the initial value was set to 100%. The rate of release of free doxorubicin was measured by the appearance of a peak with the same retention time as free doxorubicin under these HPLC conditions. The areas under each peak were used to calculate the relative amounts of free doxorubicin to doxorubicin-peptide conjugate.

[2] = molecular target: T2, FAPα enzyme derived from membrane extracts of the 293-I/2 transfected cells (Homo sapiens, UniProt Q12884); assay: FAPα-catalyzed cleavage of 4-methoxy-β-napthylamide (MNA)-peptide conjugates, enzyme kinetics; format: biochemical; conditions: release of free MNA, fluorimeter 355 nm/405 nm
T2 construct: made in house; host or cells: human embryonic kidney 293 cells, clone 293-I/2, membrane extract
T2 sequence (Q12884 1-760): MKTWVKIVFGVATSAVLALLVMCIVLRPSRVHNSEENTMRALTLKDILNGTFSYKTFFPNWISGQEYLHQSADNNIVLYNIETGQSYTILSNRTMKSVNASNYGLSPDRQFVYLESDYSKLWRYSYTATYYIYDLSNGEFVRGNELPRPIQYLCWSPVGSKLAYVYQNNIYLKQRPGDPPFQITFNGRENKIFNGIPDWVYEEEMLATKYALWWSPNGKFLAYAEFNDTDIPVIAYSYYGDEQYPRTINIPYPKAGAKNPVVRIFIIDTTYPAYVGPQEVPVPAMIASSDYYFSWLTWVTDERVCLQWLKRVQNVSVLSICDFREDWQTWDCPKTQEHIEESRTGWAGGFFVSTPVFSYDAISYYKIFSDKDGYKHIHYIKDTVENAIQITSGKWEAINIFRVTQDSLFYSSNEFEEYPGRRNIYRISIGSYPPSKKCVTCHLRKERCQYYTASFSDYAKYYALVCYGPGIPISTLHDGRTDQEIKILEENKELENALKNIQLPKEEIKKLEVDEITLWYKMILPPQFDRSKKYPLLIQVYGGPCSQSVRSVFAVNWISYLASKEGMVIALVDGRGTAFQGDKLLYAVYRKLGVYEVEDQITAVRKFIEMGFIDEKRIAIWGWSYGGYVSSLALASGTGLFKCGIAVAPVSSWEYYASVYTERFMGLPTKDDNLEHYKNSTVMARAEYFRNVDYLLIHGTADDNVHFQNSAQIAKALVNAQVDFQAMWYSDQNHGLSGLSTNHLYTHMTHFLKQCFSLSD
Experimental: (§1) Release of free MNA from the peptides was then measured in a Cytofluor fluorimeter (Per-Septive Biosystems, Inc.) using the 355 nm excitation/405 nm emission filter set.

FAPα dimers = molecular target: T3, FAPα dimers (Homo sapiens, UniProt Q12884); conditions: membrane overlay assay; cited from earlier work
T3 sequence (Q12884 1-760): T2 sequence (Q12884 1-760)

DPP-IV = DPP-IV (Homo sapiens, UniProt P27487); assay: Cleavage specificity of MNA-peptide conjugates, DPP-IV; format: biochemical; conditions: release of free MNA
Experimental: as §1
(§2) Among the-known prolyl-specific serine oligopeptidase family members, the most closely related enzyme to FAPα is DPP-IV. Since active DPP-IV is found in plasma and on many different cell types, optimization of the relative (optional) selectivity of prodrug peptidics for FAPα compared to DPP-IV is necessary to reduce undesirable conversion of the prodrug at sites other than the tumor (e.g., in the plasma). To identify peptides specific for FAPα, cleavage of MNA-coupled peptides by FAPα was compared to the ability of DPP-IV to cleave the same peptide conjugates.

FAPα = molecular target: T4, FAPα (Homo sapiens, UniProt Q12884); assay: Cleavage specificity of MNA-peptide conjugates, FAPα; format: biochemical; conditions: release of free MNA
T4 sequence (Q12884 1-760): T2 sequence (Q12884 1-760)
Experimental: as §1, §2

[3] = tested on: parental HT1080 cell line; conditions: 1 μM conjugate, serum-free medium, 19 hours at 37° C.
Experimental: (§3) Mammalian cell lines expressing recombinant FAPα were prepared. HT1080 fibrosarcoma cells, widely known and available from the DSMZ (German Collection of Microorganisms and Cell Cultures, Braunschweig, Germany) under the accession number DSMZ ACC 315, were maintained in a DMEM/F12 mix 50:50 containing 10% fetal bovine serum in an atmosphere of 95% air and 5% CO2. HT1080 cells were transfected with FAP.38 vector (WO 97/34927, Scanlan et al., loc. cit.) using the Lipofectin method according to the manufacturer's instructions (Gibco/BRL). Transfectants were selected for resistance to antibiotics (200 μg/ml Geneticin) and thereafter maintained in medium containing Geneticin. Individual colonies of resistant cells were picked, grown to confluence in 10 cm tissue culture petri dishes and tested for FAPα expression in an immunofluorescence assay using the FAPα-specific monoclonal antibody F19, as described (Garin-Chesa et al. (1990) Proc. Natl. Acad. Sci. USA 87(18), 7235-7239).
(§4) Samples were separated by reversed-phase high performance liquid chromatographic (HPLC) assay that was established to measure cleavage of doxorubicin-peptide conjugates. […] Free doxorubicin and doxorubicin-peptide conjugates were detected by fluorescence (excitation, 475 nm; emission, 585 nm) using a Waters 474 fluorescence detector. […]

[4] = molecular target: T5, cell-bound FAPα (FAP-expressing cell line HT1080 clone 33) (Homo sapiens, UniProt Q12884); assay: Release of free doxorubicin by cell-bound FAPα, HT1080 clone 33 cells; format: cell-based; conditions: 1 μM conjugate, serum-free medium, 19 hours at 37° C.
T5 construct: expressed in transfected cells; host or cells: HT1080 fibrosarcoma cells, clone 33
T5 sequence (Q12884 1-760): T2 sequence (Q12884 1-760)
Experimental: as §3, §4

T1 sequence (P01731+Q12884 fused): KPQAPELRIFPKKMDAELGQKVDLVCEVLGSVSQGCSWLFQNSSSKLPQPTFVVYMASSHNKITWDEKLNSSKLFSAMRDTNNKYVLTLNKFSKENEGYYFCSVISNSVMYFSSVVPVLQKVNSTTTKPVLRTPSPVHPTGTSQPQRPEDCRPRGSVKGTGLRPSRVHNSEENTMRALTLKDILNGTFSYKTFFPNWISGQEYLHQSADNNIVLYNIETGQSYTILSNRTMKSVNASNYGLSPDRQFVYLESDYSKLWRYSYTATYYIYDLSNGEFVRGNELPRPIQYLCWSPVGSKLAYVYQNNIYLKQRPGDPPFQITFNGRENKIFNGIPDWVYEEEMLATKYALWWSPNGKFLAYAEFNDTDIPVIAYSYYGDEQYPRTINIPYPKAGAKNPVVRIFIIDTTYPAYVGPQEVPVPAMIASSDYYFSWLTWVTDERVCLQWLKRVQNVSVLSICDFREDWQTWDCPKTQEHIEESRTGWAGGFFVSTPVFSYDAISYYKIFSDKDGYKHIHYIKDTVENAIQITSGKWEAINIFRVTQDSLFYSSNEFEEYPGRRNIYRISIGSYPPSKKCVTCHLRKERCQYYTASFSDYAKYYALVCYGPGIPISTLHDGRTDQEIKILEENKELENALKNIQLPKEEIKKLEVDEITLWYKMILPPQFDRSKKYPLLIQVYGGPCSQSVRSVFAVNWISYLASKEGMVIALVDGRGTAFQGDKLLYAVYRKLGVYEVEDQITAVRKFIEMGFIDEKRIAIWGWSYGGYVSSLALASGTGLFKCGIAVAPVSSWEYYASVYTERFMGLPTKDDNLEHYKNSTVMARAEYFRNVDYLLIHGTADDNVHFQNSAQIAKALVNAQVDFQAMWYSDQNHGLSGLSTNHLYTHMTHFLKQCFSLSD
Sequence of DPP-IV (P27487 whole entry, species assumed): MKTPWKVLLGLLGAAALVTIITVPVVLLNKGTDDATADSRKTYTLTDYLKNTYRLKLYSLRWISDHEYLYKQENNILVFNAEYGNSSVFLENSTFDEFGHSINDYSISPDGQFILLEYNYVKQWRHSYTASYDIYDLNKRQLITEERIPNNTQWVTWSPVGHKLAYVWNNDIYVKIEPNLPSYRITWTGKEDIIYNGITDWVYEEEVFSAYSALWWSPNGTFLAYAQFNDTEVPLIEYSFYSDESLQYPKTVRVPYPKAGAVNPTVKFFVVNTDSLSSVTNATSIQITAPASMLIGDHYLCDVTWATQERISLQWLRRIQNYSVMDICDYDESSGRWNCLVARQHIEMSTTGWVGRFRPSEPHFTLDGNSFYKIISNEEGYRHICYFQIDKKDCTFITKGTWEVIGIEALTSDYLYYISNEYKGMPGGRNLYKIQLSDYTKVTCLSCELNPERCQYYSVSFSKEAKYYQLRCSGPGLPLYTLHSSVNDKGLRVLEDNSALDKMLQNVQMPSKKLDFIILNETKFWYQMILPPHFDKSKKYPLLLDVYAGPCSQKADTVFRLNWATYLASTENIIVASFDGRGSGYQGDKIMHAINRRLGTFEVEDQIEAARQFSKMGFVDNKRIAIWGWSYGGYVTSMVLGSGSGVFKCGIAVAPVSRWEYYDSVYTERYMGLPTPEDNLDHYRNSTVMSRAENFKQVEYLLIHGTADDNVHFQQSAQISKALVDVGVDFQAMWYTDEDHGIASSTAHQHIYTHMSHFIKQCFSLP

Compound	Kcat [2] [s⁻¹]	Km [2] [µM]	further results
COc1cccc2c1C(=O)c1c(O)c3c(c(O)c1C2=O)CC(O)(C(=O)CO)CC3OC1CC(NC(=O)C2CCCN2C(=O)CNC(=O)C(C)NC(=O)C2CCCN2C(=O)OCC2c3ccccc3-c3ccccc32)C(O)C(C)O1 (stereo not drawn) [Fmoc-Pro-Ala-Gly-, Fmoc-Pro-Ala-Gly-Pro-Dox]			Cleavage by FAP [1]: >95%
COc1cc(NC(=O)C2CCCN2C(=O)C(N)CCCCN)cc2ccccc12 (stereo not drawn) [Lys-Pro-MNA]	57.1	530	
COc1cc(NC(=O)[C@@H]2CCCN2C(=O)[C@@H](N)C2CCCCC2)cc2ccccc12 [Chg-Pro-MNA]	53.7	75	
COc1cc(NC(=O)[C@@H]2CCCN2C(=O)[C@@H](N)CC[S+](C)[O-])cc2ccccc12 (stereo partly drawn) [Met(O)-Pro-MNA]	26.9	378	
NCC(=O)N1CCC[C@H]1C(=O)Nc1ccc2c(C(F)(F)F)cc(=O)oc2c1 [Gly-Pro-7-amino-4-trifluoromethyl coumarin] (H-Gly-Pro-{AFC})			cleavage by FAPα dimers (FAPα dimers): able to cleave
COc1cc(NC(=O)[C@@H]2CCCN2C(=O)[C@@H](N)CCCNC(=N)N)cc2ccccc12 [Arg-Pro-MNA]	50.6	278	
COc1cccc2c1C(=O)c1c(O)c3c(c(O)c1C2=O)CC(O)(C(=O)CO)CC3OC1CC(NC(=O)C2CCCN2C(=O)CNC(=O)C(C)NC(=O)C2CCCN2)C(O)C(C)O1 (stereo not drawn) [H-Pro-Ala-Gly-, H-Pro-Ala-Gly-Pro-Dox]			Cleavage by FAP [1]: ca. 11%
COc1cc(NC(=O)C2CCCN2C(=O)CNC(=O)C(C)NC(=O)C2CCCN2C(=O)OCc2ccccc2)cc2ccccc12 (stereo not drawn) [Z-Pro-Ala-Gly-Pro-MNA] (Cbz-PAGP-{NH(4-MeO-2-naphthyl)}; configuration not given here)			Cleavage specificity DPP IV (DPP-IV): −; Cleavage specificity FAP (FAPα): +
C[C@H](N)C(=O)N1CCC[C@H]1C(=O)Nc1ccc2c(C(F)(F)F)cc(=O)oc2c1 [Ala-Pro-7-amino-4-trifluoromethyl coumarin] (H-Ala-Pro-{AFC})			cleavage by FAPα dimers (FAPα dimers): able to cleave
COc1cc(NC(=O)[C@@H]2CCCN2C(=O)[C@@H](N)CCSC)cc2ccccc12 [Met-Pro-MNA]	27.9	127	
COc1cc(NC(=O)[C@@H]2CCCN2C(=O)[C@@H](N)CCCCO)cc2ccccc12 [Hyn-Pro-MNA]	27.4	69	
COc1cc(NC(=O)[C@@H]2CCCN2C(=O)[C@@H](N)CCC(N)=O)cc2ccccc12 [Gln-Pro-MNA]	40.5	273	
CC[C@H](C)[C@H](N)C(=O)N1CCC[C@H]1C(=O)Nc1cc(OC)c2ccccc2c1 [Ile-Pro-MNA]	12.6	43	
COc1cccc2c1C(=O)c1c(O)c3c(c(O)c1C2=O)C[C@@](O)(C(=O)CO)C[C@@H]3O[C@H]1C[C@H](NC(=O)[C@@H]2CCCN2C(=O)CNC(=O)OCc2ccccc2)[C@H](O)[C@H](C)O1 [ZGP-Dox, N-Cbz-Gly-Pro-Doxorubicin]			conversion of conjugate to free doxorubicin by parental HT1080 cell line [3]: 9%; conversion of conjugate to free doxorubicin after incubation with purified FAPmCD8 fusion protein ([1]; 37° C., 1 day, approximately 20 ng FAPmCD8, Hepes-buffered saline pH 7.4, HPLC (FIG. 1)): could be converted to free doxorubicin; Cleavage by FAP [1]: >95%; conversion of conjugate to free doxorubicin by HT1080 clone 33 [4]: 81%
COc1cc(NC(=O)C2CCCN2C(=O)C(C)N)cc2ccccc12 (stereo not drawn) [Ala-Pro-MNA]	35.7	267	Cleavage specificity DPP IV (DPP-IV): +; Cleavage specificity FAP (FAPα): +
COc1cccc2c1C(=O)c1c(O)c3c(c(O)c1C2=O)CC(O)(C(=O)CO)CC3OC1CC(NC(=O)C2CCCN2C(=O)C(N)C2CCCCC2)C(O)C(C)O1 (stereo not drawn) [H-Chg-, H-Chg-Pro-Dox]			Cleavage by FAP [1]: >95%
COc1cc(NC(=O)[C@@H]2CCCN2C(=O)[C@@H]2C[C@@H](O)CN2)cc2ccccc12 [trans-Hyp-Pro-MNA]	37.9	254	
COc1cc(NC(=O)[C@@H]2CCCN2C(=O)[C@@H]2CCCN2)cc2ccccc12 [Pro-Pro-MNA, Pro-Pro-4-methoxy-β-naphthylamide]	49.5	154	
NCCCC[C@H](N)C(=O)N1CCC[C@H]1C(=O)Nc1ccc2c(C(F)(F)F)cc(=O)oc2c1 [Lys-Pro-7-amino-4-trifluoromethyl coumarin] (H-Lys-Pro-{AFC})			cleavage by FAPα dimers (FAPα dimers): able to cleave
COc1cc(NC(=O)[C@@H]2CCCN2C(=O)[C@@H](N)CO)cc2ccccc12 [Ser-Pro-MNA]	28.3	872	
COc1cc(NC(=O)[C@@H]2CCCN2C(=O)[C@@H](N)C(C)C)cc2ccccc12 [Val-Pro-MNA]	27.7	95	
COc1cccc2c1C(=O)c1c(O)c3c(c(O)c1C2=O)CC(O)(C(=O)CO)CC3OC1CC(NC(=O)C2CCCN2C(=O)CNC(=O)C(C)NC(=O)C2CCCN2C(=O)OCc2ccccc2)C(O)C(C)O1 (stereo not drawn) [ZPAGP-Dox, N-Cbz-Pro-Ala-Gly-Pro-Doxorubicin]			conversion of conjugate to free doxorubicin by parental HT1080 cell line [3]: Little or no detectable conversion; Cleavage by FAP [1]: >95%; conversion of conjugate to free doxorubicin by HT1080 clone 33 [4]: 43%
COc1cc(NC(=O)C2CCCN2C(=O)CNC(=O)OCc2ccccc2)cc2ccccc12 (stereo not drawn) [Z-Gly-Pro-MNA]			Cleavage specificity DPP IV (DPP-IV): −; Cleavage specificity FAP (FAPα): +
